Experiments:
Format in all cases: biochemical
[1] = molecular target: T1, SHP-1 (Homo sapiens, UniProt P29350); assay: PTP Enzyme Assay (DiFMUP), SHP-1; conditions: catalytic core of human recombinant PTP; 20 μM DiFMUP; 30 minutes at room temperature; read-out: IC50 value in respect of SHP-1
T1 construct: using the catalytic core of a human recombinant PTP as the enzyme; made in house
T1 sequence (P29350 244-515 limits assumed): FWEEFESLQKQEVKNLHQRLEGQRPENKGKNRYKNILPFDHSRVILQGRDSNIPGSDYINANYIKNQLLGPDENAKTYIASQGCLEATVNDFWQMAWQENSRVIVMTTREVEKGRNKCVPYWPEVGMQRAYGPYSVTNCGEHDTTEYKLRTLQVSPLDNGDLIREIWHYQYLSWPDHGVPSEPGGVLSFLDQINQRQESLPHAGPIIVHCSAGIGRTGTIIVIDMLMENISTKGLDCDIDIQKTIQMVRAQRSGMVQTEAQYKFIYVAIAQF
Protocol: (§1) The PTP Enzyme Assay aims at determining the extent of inhibition of PTPs, e.g. of PTP1B, SHP-1, SHP-2, or GLEPP-1 in the presence of a test compound of formula (I). The inhibition is illustrated by IC50 values which denote the concentration of test compound necessary to achieve an inhibition of 50% of said PTP's using the following concentration of the PTP substrate DiFMUP: • 5 μM DiFMUP for PTP1B; • 20 μM DiFMUP for SHP-1 and SHP-2; • 30 μM DiFMUP for GLEPP-1. a) PTPs Cloning […]
(§2) Assays were performed in a 96 well plate format, using the catalytic core of a human recombinant PTP as the enzyme and 6,8-DiFluoro-4-MethylUmbelliferyl Phosphate (DiFMUP, Molecular Probes, D-6567) as a substrate. […] The reaction ran for 30 minutes at room temperature before reading the fluorescence intensity (integral or intensity) on a Perkin-Elmer Victor 2 spectrofluorimeter (excitation of 6,8-difluoro-7-hydroxy coumarin is at 355 nm, the emission at 460 nm, for 0.1 s). The percentage of inhibition is determined by measuring the relative fluorescence ion absence of a test compound (PTP inhibitor), i.e. with the solvent alone (5% DMSO). The IC50 values for inhibition were determined in triplicates.

[2] = molecular target: T2, PTP1B (Homo sapiens, UniProt P18031); assay: PTP Enzyme Assay (DiFMUP), PTP1B; conditions: catalytic core of human recombinant PTP; 5 μM DiFMUP; 30 minutes at room temperature; read-out: IC50 value in respect of PTP1B
T2 construct: using the catalytic core of a human recombinant PTP as the enzyme; made in house
T2 sequence (P18031 3-277 limits assumed): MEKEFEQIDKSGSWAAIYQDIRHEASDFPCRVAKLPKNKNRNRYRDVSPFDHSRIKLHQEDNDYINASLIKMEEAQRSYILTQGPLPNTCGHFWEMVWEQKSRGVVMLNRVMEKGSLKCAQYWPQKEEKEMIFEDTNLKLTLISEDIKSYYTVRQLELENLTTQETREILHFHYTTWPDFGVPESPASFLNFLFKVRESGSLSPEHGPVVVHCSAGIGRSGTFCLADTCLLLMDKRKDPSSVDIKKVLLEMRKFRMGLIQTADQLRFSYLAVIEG
Protocol: The PTP Enzyme Assay aims at determining the extent of inhibition of PTPs, e.g. of PTP1B, SHP-1, SHP-2, or GLEPP-1 in the presence of a test compound of formula (I). The inhibition is illustrated by IC50 values which denote the concentration of test compound necessary to achieve an inhibition of 50% of said PTP's using the following concentration of the PTP substrate DiFMUP: • 5 μM DiFMUP for PTP1B; • 20 μM DiFMUP for SHP-1 and SHP-2; • 30 μM DiFMUP for GLEPP-1. a) PTPs Cloning
The cloning and expression of the catalytic domain e.g. of PTP1B, may be performed as described in J. Biol. Chem. 2000, 275(13), pp 9792-9796. […]
as §2

[3] = molecular target: T3, SHP-2 (Homo sapiens, UniProt Q06124); assay: PTP Enzyme Assay (DiFMUP), SHP-2; conditions: catalytic core of human recombinant PTP; 20 μM DiFMUP; 30 minutes at room temperature; read-out: IC50 value in respect of SHP-2
T3 construct: using the catalytic core of a human recombinant PTP as the enzyme; made in house
T3 sequence (Q06124 247-517 limits assumed): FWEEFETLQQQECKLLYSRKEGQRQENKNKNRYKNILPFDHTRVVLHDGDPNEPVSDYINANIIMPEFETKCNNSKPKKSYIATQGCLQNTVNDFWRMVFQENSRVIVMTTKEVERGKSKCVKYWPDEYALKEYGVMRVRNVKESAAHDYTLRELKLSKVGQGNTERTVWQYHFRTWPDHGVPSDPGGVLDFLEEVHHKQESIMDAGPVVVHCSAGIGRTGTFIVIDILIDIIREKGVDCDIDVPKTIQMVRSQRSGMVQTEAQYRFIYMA
Protocol: as §1, §2

[4] = molecular target: T4, GLEPP-1 (Homo sapiens, UniProt Q16827); assay: PTP Enzyme Assay (DiFMUP), GLEPP-1; conditions: catalytic core of human recombinant PTP; 30 μM DiFMUP; 30 minutes at room temperature; read-out: IC50 value in respect of GLEPP-1
T4 construct: using the catalytic core of a human recombinant PTP as the enzyme; made in house
T4 sequence (Q16827 938-1195 limits assumed): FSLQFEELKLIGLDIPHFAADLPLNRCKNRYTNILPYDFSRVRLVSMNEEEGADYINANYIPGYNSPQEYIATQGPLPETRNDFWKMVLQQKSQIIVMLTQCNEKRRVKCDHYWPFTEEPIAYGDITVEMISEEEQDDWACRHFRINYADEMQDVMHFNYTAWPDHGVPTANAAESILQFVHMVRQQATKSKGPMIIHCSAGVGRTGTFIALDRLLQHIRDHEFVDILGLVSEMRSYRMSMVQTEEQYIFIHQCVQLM
Protocol: as §1, §2

IC50 [1]: 4 µM
IC50 [2]: 1 µM
IC50 [3]: 1.9 µM
IC50 [4]: 1.2 µM
SMILES: O=C(NCc1ccc(Oc2ccccc2)cc1)c1ccc(CN(C(=O)CCC2CCCC2)c2ccc(O)c(C(=O)O)c2)cc1 [Example 1, 5-[(3-cyclopentylpropanoyl)(4-{[(4-phenoxybenzyl)amino]carbonyl}benzyl)amino]-2-hydroxybenzoic acid]

Reference: patent US7365225B2, “Aryl dicarboxamides” (Laboratoires Serono SA, priority 2003, dated 2008)
